Data reported in patent publication US20230355645A1, “PHARMACEUTICAL COMPOSITION” (priority 2020, published 2023).

Experiments:
Caco-2 cells = test: MTT test, toxicity of CBD towards Caco-2; assay type: cell-based, human; conditions: CBD 3 and 5 μmol/l, 24 h incubation
Procedure: (§1) Human Caco-2 intestinal cells and Ishikawa endometrial cells were used in an in vitro study of the effect of cannabidiol (CBD) and sodium hyaluronate. In the first phase of the experiment, the safe concentration of CBD was determined based on the results of MTT measurements, a test for the reduction of 3-(4,5-dimethylthiazol-2-yl)-2,5-diphenyltetrazolium bromide (MTT) to the corresponding formazan. The test was performed according to M. D. Maines, L. G. Costa, D. J. Reed, et al. Current protocols in toxicology. New York: John Wiley & Sons. (1998).
(§2) Cells seeded in a 96-well plate at a concentration of 3×10^4 cells/ml, 100 μl/well, which were allowed to adhere for 24 hours, were subsequently incubated for 24 hours with CBD in a concentration range of 100 to 0.78 μmol/l dissolved in serum-free culture medium containing MEM (Minimum Essential Medium Eagle) supplemented by 2 mM glutamine, 1% NEAA (Non essential Amino Acid), and penicillin 100 IU/ml and streptomycin 100 ug/ml. At the end of the incubation period, 100 μl of MTT mixture (0.5 mg/mL in serum-free culture medium) was added for the period of 2 hours. At the end of the incubation period and aspiration of the MTT mixture, 100 μl of DMSO with NH3 (1%, v/v) were added. The absorbance was measured at 540 nm (INFINITE M200 PRO Tecan, Schoeller). […]

[1] = system: Ishikawa endometrial cells; test: MTT test, toxicity of CBD towards Ishikawa; assay type: cell-based, human; conditions: CBD 3 and 5 μmol/l, 24 h incubation
Procedure: as §1, §2

[2] = system: IL-6 production by Caco-2 cells; test: Production of IL-6 by Caco-2 cells following incubation with LPS (ELISA); assay type: cell-based, human; conditions: Caco-2, after LPS induction, both doses (3 and 5 μmol/l)
Procedure: (§3) Cells (Caco-2, Ishikawa) were seeded in 6-well plates in culture medium containing MEM (Minimum Essential Medium Eagle) supplemented by 2 mM glutamine, 1% NEAA (Non essential Amino Acid), 10% FBS (Fetal Bovine Serum), penicillin 100 IU/ml and streptomycin 100 ug/ml and allowed to adhere for a minimum of 24 hours and then allowed to grow to confluence. They were then rinsed with PBS (2 ml) and treated with LPS (E. coli) 2 μg/ml in serum-free culture medium, 2 ml per well 3 times after 3 hours. After the last 3 hours of incubation, the test substances (CBD, CBD+HA in serum-free culture medium) were added to the cells and the samples were incubated for another 22 hours. The culture medium was then removed, frozen at −80° C. for downstream determination of pro-inflammatory cytokines (IL-6 and IL-8) by ELISA (Human ELISA Development Kit, Cat. Nos. 900-K16 and 900-K18, PeproTech, Baria, Czech Republic). The results are expressed relative to a control K (cells cultured only with serum-free culture medium), as a percentage of the control, expressed as mean±SEM. The measurement was performed in three independent experiments. KL are cells cultured with LPS. Testing was performed in triplicates.

[3] = system: IL-8 production by Caco-2 cells; test: Production of IL-8 by Caco-2 cells following incubation with LPS (ELISA); assay type: cell-based, human; conditions: Caco-2, after LPS induction, higher dose of CBD
Procedure: as §3

[4] = system: IL-6 production by Ishikawa cells; test: Production of IL-6 by Ishikawa cells following incubation with LPS (ELISA); assay type: cell-based, human; conditions: after LPS induction, both doses (3 and 5 μmol/l)
Procedure: as §3

[5] = system: IL-8 production by Ishikawa cells; test: Production of IL-8 by Ishikawa cells following incubation with LPS (ELISA); assay type: cell-based, human; conditions: after LPS induction, both doses of CBD
Procedure: as §3

[6] = system: IL-6 production by Caco-2 cells; conditions: Caco-2 model, Couch et al. Clin. Sci. 2017; cited from earlier work
[7] = cited from earlier work
[8] = especially in solution by exposure to light, atmospheric oxygen and acidic pH; cited from earlier work
[9] = system: Balb/c 3T3-L1 mouse fibroblasts; test: Cytotoxicity assay, neutral red incorporation; assay type: cell-based; conditions: 24 h
Procedure: Balb/c 3T3-L1 mouse fibroblasts (ECACC 86052701) were used in the cytotoxicity assay. The cells were cultured in D-MEM medium (Dulbecco's modification of Eagle's essential medium, Lonza) containing antibiotics (penicillin 100 IU/ml, streptomycin 100 ug/ml), enriched with 10% inactivated calf serum, pH 7.2.
Suppositories prepared according to Example 1 were tested. The positive control (PK) was sodium lauryl sulfate (SLS), the cell control was serum-free culture medium.
The suppository extract was prepared in the ratio of 0.2 g of sample per 1 ml of extracting agent (serum-free D-MEM) according to ČSN EN ISO 10993-12 (2012). The extraction was performed for 24 hours at 37° C., in a closed culture flask under aseptic conditions according to ČSN EN ISO 10993-5 (2012). The resulting 100% extract was further diluted with serum-free culture medium.
Flat bottom tissue culture plates of 8×12 wells were used to culture the cells. The cells were suspended at a concentration of 10^5 cells in 1 ml of the culture medium, inoculating 0.1 ml of the suspension into 1 well. Culture conditions 37° C., 7.5% CO2. Pre-cultivation to obtain a cell culture monolayer was performed 24 hours before exposure to the test material. The cultures were established in quadruplets for the test extracts and for the controls. After 24 hours of precultivation, the culture medium and 0.2 ml of the extract from the test sample, or its serial dilution, respectively. This was followed by culture for 24 hours at 37° C., 7.5% CO2 and staining with neutral red (0.2 ml of neutral red solution per well, incubation for 3 hours, ethanol/acetic acid fixation solution). After completion of the culture, cytotoxicity was determined quantitatively (fluorimetrically) based on the incorporation of neutral red as a vital dye.
The fluorimetric method for determining cytotoxicity is based on the incorporation of a vital dye into living cells and the detection of fluorescence in an excitation (530 nm) and emission filter (590 nm) system using cold light. The degree of cytotoxicity is expressed in % of the detected fluorescence in the culture containing the test extract relative to the control culture in the absence of the test extract. Fluorescence is detected in FSU units of fluorescence intensity. For quantification, the viability of the culture is calculated as follows:
culture viability (%)=(average FSU of the test sample−average FSU of the blank)/(average FSU of the control−average FSU of the blank)
The mean fluorescence values for each group represent the average fluorescence value from all four wells after subtracting the average fluorescence value of the eight wells with fixation solution (blank). The control is serum-free culture medium.

human volunteers = conditions: in vivo

C=C(C)[C@@H]1CCC(C)=C[C@H]1c1c(O)cc(CCCCC)cc1O [CBD, Cannabidiol]
toxicity by MTT values (Caco-2 cells): sub-toxic
toxicity by MTT values [1]: sub-toxic
IL-6 levels [2]: significant decrease
IL-8 concentration [3]: at the same level
IL-6 levels [4]: significant decrease
IL-8 levels [5]: decrease
increase in IL-6 concentration compared to the original value after induction of inflammation [6]: more than 70%
log P [7]: 6-7
stability [8]: prone to degradation

CCCCCCCCCCCCOS(=O)(=O)[O-].[Na+] [PK-SLS, sodium lauryl sulfate]
Mean fluorescence (FSU) ([9]; Test 1, 1 μg/ml): 2743.4 FSU
Relative to control % ([9]; Test 1, 1 μg/ml): 98.8%
Mean fluorescence (FSU) ([9]; Test 1, 10 μg/ml): 891.1 FSU
Relative to control % ([9]; Test 1, 10 μg/ml): 32.1%
Mean fluorescence (FSU) ([9]; Test 1, 20 μg/ml): 113.9 FSU
Relative to control % ([9]; Test 1, 20 μg/ml): 16.0%
Mean fluorescence (FSU) ([9]; Test 2, 1 μg/ml): 3187.8 FSU
Relative to control % ([9]; Test 2, 1 μg/ml): 98.9%
Mean fluorescence (FSU) ([9]; Test 2, 10 μg/ml): 542.5 FSU
Relative to control % ([9]; Test 2, 10 μg/ml): 16.8%
Mean fluorescence (FSU) ([9]; Test 2, 20 μg/ml): 326.3 FSU
Relative to control % ([9]; Test 2, 20 μg/ml): 10.1%
Total number of reactions, Reaction yes/no (human volunteers; human): 30/30
Reaction yes/no (human volunteers): YES
